Laboratory results from the supplement of paper PMC6045584.
± gives the standard deviation of the averaged measurements.

Experiments:
MK-1775 = compound: C=CCn1c(=O)c2cnc(Nc3ccc(N4CCN(C)CC4)cc3)nc2n1-c1cccc(C(C)(C)O)n1 [MK-1775]; experiment: surviving fraction relative to DMSO-only wells; higher = less growth inhibition; conditions: exposure time: 5 days
Method in brief: (§1)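 Inhibitors were tested at 0.5, 1, 5, 10, 50, 100, 500 and 1000 nM, applied continuously for five days beginning 24 hours after log-phase tumour cells were seeded at 250–500 per well in 384-well plates. CellTiter-Glo luminescence served as the viability measure, expressed as surviving fraction against the median of DMSO-only wells. Each line, screened three times, was kept only with replicate Pearson r >0.7 and median Z' >0.3.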

LENVATINIB = compound: COc1cc2nccc(Oc3ccc(NC(=O)NC4CC4)c(Cl)c3)c2cc1C(N)=O [LENVATINIB]; experiment: as above; conditions: exposure time: 5 days
Method in brief: as §1

Row | Test System | surviving fraction (MK-1775; 0.5 nM) | surviving fraction (MK-1775; 1 nM) | surviving fraction (MK-1775; 5 nM) | surviving fraction (MK-1775; 10 nM) | surviving fraction (MK-1775; 50 nM) | surviving fraction (MK-1775; 100 nM) | surviving fraction (MK-1775; 500 nM) | surviving fraction (MK-1775; 1000 nM) | surviving fraction (LENVATINIB; 0.5 nM) | surviving fraction (LENVATINIB; 1 nM) | surviving fraction (LENVATINIB; 5 nM) | surviving fraction (LENVATINIB; 10 nM) | surviving fraction (LENVATINIB; 50 nM) | surviving fraction (LENVATINIB; 100 nM) | surviving fraction (LENVATINIB; 500 nM) | surviving fraction (LENVATINIB; 1000 nM)
1 | SG27 HEADNECK | 1.04 ± 0.046 | 1.04 ± 0.11 | 1.08 ± 0.068 | 1.03 ± 0.11 | 0.969 ± 0.12 | 1.01 ± 0.14 | 0.853 ± 0.1 | 0.896 ± 0.061 | 1.15 ± 0.18 | 1.11 ± 0.028 | 1.12 ± 0.093 | 1.1 ± 0.052 | 1.04 ± 0.21 | 0.985 ± 0.13 | 0.928 ± 0.025 | 0.957 ± 0.055
2 | SG28 HEADNECK | 0.987 ± 0.18 | 1.11 ± 0.066 | 1.14 ± 0.12 | 1.04 ± 0.046 | 0.698 ± 0.0084 | 0.549 ± 0.032 | 0.441 ± 0.034 | 0.558 ± 0.11 | 1.01 ± 0.091 | 1.06 ± 0.058 | 1.04 ± 0.011 | 1.08 ± 0.072 | 1.09 ± 0.097 | 0.966 ± 0.069 | 1.1 ± 0.069 | 1.08 ± 0.097
3 | SG31 HEADNECK | 1.15 ± 0.19 | 1.03 ± 0.1 | 0.968 ± 0.097 | 0.977 ± 0.12 | 0.979 ± 0.14 | 0.789 ± 0.1 | 0.623 ± 0.074 | 0.649 ± 0.048 | 1.04 ± 0.17 | 1.17 ± 0.15 | 0.975 ± 0.3 | 0.977 ± 0.066 | 0.985 ± 0.12 | 0.967 ± 0.059 | 1.24 ± 0.09 | 1.12 ± 0.2
4 | SG32 HEADNECK | 1.25 ± 0.072 | 1.43 ± 0.26 | 1.13 ± 0.19 | 1.14 ± 0.2 | 0.852 ± 0.074 | 0.476 ± 0.037 | 0.22 ± 0.038 | 0.19 ± 0.0027 | 1.21 ± 0.15 | 1.38 ± 0.028 | 1.15 ± 0.14 | 1.13 ± 0.2 | 1.05 ± 0.15 | 1.12 ± 0.2 | 1.41 ± 0.35 | 1.15 ± 0.12
5 | SG43 HEADNECK | 1.22 ± 0.14 | 1.01 ± 0.11 | 1.02 ± 0.084 | 0.823 ± 0.063 | 0.906 ± 0.072 | 0.911 ± 0.06 | 0.783 ± 0.14 | 0.549 ± 0.14 | 0.959 ± 0.18 | 1.01 ± 0.3 | 0.772 ± 0.11 | 0.842 ± 0.098 | 0.84 ± 0.14 | 0.93 ± 0.24 | 1.13 ± 0.17 | 1.09 ± 0.11
6 | SIHA CERVIX | 1.08 ± 0.03 | 1.04 ± 0.054 | 1.09 ± 0.066 | 1.08 ± 0.039 | 1.17 ± 0.085 | 1.16 ± 0.057 | 0.277 ± 0.049 | 0.0987 ± 0.013 | 1.07 ± 0.016 | 1.1 ± 0.04 | 1.12 ± 0.049 | 1.11 ± 0.085 | 1.2 ± 0.14 | 1.18 ± 0.05 | 1.04 ± 0.13 | 0.97 ± 0.035
7 | SJSA1 BONE | 1 ± 0.011 | 1.0057 ± 0.00058 | 1.03 ± 0.026 | 1.04 ± 0.034 | 1.02 ± 0.033 | 0.938 ± 0.049 | 0.384 ± 0.011 | 0.317 ± 0.02 | 1.04 ± 0.034 | 1.02 ± 0.034 | 1.09 ± 0.087 | 1.09 ± 0.051 | 1.15 ± 0.014 | 1.07 ± 0.029 | 1.03 ± 0.022 | 0.997 ± 0.015
8 | SKBR3 BREAST | 1.07 ± 0.15 | 0.873 ± 0.22 | 0.975 ± 0.15 | 1.02 ± 0.15 | 0.858 ± 0.12 | 0.746 ± 0.077 | 0.308 ± 0.031 | 0.182 ± 0.0035 | 1 ± 0.18 | 1.08 ± 0.11 | 1.04 ± 0.15 | 1.06 ± 0.099 | 1.05 ± 0.19 | 1.16 ± 0.11 | 1.1 ± 0.068 | 0.944 ± 0.17
9 | SNU475 LIVER | 1.05 ± 0.06 | 1.04 ± 0.032 | 1.04 ± 0.024 | 0.9893 ± 0.0081 | 0.941 ± 0.035 | 0.884 ± 0.054 | 0.58 ± 0.031 | 0.345 ± 0.033 | 1.04 ± 0.069 | 1.04 ± 0.042 | 1.02 ± 0.07 | 1.03 ± 0.03 | 0.971 ± 0.045 | 1.03 ± 0.018 | 0.995 ± 0.037 | 1 ± 0.016
10 | SUM44 BREAST | 1.043 ± 0.0078 | 1.08 ± 0.034 | 1.04 ± 0.023 | 1.07 ± 0.017 | 0.979 ± 0.017 | 0.561 ± 0.014 | 0.26 ± 0.0095 | 0.254 ± 0.01 | 1.01 ± 0.06 | 1.03 ± 0.054 | 1.03 ± 0.048 | 1.04 ± 0.018 | 1.05 ± 0.044 | 1.07 ± 0.052 | 1.03 ± 0.029 | 1.01 ± 0.015
11 | SUM149 BREAST | 1.13 ± 0.077 | 1.09 ± 0.069 | 1.16 ± 0.095 | 1.12 ± 0.097 | 0.706 ± 0.025 | 0.328 ± 0.024 | 0.073 ± 0.0044 | 0.0517 ± 0.0025 | 1.07 ± 0.12 | 1.04 ± 0.061 | 1.05 ± 0.025 | 1.02 ± 0.16 | 1.04 ± 0.076 | 1.01 ± 0.066 | 0.992 ± 0.06 | 0.965 ± 0.084
12 | SUM149.B1*.S BREAST | 1.1 ± 0.035 | 1.11 ± 0.053 | 1.1 ± 0.043 | 1.13 ± 0.017 | 1.07 ± 0.025 | 0.892 ± 0.018 | 0.198 ± 0.01 | 0.144 ± 0.0048 | 1.11 ± 0.031 | 1.15 ± 0.018 | 1.15 ± 0.03 | 1.11 ± 0.044 | 1.19 ± 0.029 | 1.15 ± 0.031 | 1.17 ± 0.052 | 1.14 ± 0.042
13 | SUM159 BREAST | 1.06 ± 0.023 | 1.03 ± 0.021 | 1.04 ± 0.028 | 1.02 ± 0.022 | 1.01 ± 0.069 | 1.02 ± 0.057 | 0.69 ± 0.17 | 0.377 ± 0.16 | 1.16 ± 0.15 | 1.15 ± 0.11 | 1.11 ± 0.096 | 1.13 ± 0.12 | 1.08 ± 0.034 | 1.04 ± 0.088 | 1.08 ± 0.021 | 1.08 ± 0.017
14 | SYO1 SYNOVIAL | 1.01 ± 0.014 | 0.977 ± 0.053 | 1 ± 0.014 | 0.9618 ± 0.0076 | 0.658 ± 0.033 | 0.317 ± 0.076 | 0.473 ± 0.11 | 0.0491 ± 0.0039 | 0.942 ± 0.11 | 0.962 ± 0.025 | 0.918 ± 0.017 | 0.889 ± 0.042 | 0.768 ± 0.079 | 0.667 ± 0.042 | 0.528 ± 0.031 | 0.504 ± 0.02
15 | T47D BREAST | 1.07 ± 0.021 | 1.05 ± 0.014 | 1.1 ± 0.044 | 1.01 ± 0.015 | 1.06 ± 0.065 | 0.979 ± 0.025 | 0.453 ± 0.025 | 0.38 ± 0.024 | 1.09 ± 0.018 | 1.09 ± 0.018 | 1.08 ± 0.044 | 1.06 ± 0.057 | 1.1 ± 0.028 | 1.13 ± 0.046 | 1.12 ± 0.064 | 1.1 ± 0.023
16 | U2OS BONE | 1.03 ± 0.028 | 0.991 ± 0.043 | 1.07 ± 0.032 | 1.07 ± 0.034 | 0.922 ± 0.039 | 0.641 ± 0.028 | 0.133 ± 0.002 | 0.0693 ± 0.0045 | 1.01 ± 0.038 | 0.99 ± 0.045 | 1.04 ± 0.039 | 1.02 ± 0.027 | 1.02 ± 0.019 | 1.02 ± 0.033 | 0.891 ± 0.051 | 0.832 ± 0.027
17 | VCAP PROSTATE | 1.14 ± 0.079 | 1.14 ± 0.19 | 1.09 ± 0.042 | 1.08 ± 0.08 | 1.04 ± 0.12 | 0.52 ± 0.11 | 0.0963 ± 0.019 | 0.121 ± 0.019 | 1.03 ± 0.038 | 1.04 ± 0.12 | 1.17 ± 0.15 | 1.12 ± 0.1 | 1.1 ± 0.11 | 1.17 ± 0.079 | 0.962 ± 0.097 | 0.97 ± 0.078
18 | VP229 BREAST | 1.13 ± 0.14 | 1.01 ± 0.044 | 1.01 ± 0.056 | 1.07 ± 0.063 | 1.02 ± 0.034 | 0.754 ± 0.093 | 0.41 ± 0.056 | 0.261 ± 0.013 | 1.29 ± 0.23 | 1.14 ± 0.17 | 1.21 ± 0.093 | 0.969 ± 0.044 | 1.36 ± 0.17 | 1.34 ± 0.14 | 1.47 ± 0.13 | 1.42 ± 0.081
19 | YAMATO SYNOVIAL | 1.31 ± 0.14 | 1.29 ± 0.064 | 1.43 ± 0.074 | 1.2 ± 0.093 | 1.27 ± 0.12 | 0.972 ± 0.036 | 0.463 ± 0.031 | 0.424 ± 0.018 | 1.18 ± 0.073 | 1.15 ± 0.05 | 1.13 ± 0.12 | 1.06 ± 0.072 | 1.1 ± 0.062 | 1.14 ± 0.13 | 0.953 ± 0.08 | 0.949 ± 0.017
20 | ZR751 BREAST | 1.18 ± 0.14 | 1 ± 0.16 | 0.999 ± 0.19 | 1.04 ± 0.15 | 1.01 ± 0.16 | 1.04 ± 0.17 | 0.733 ± 0.1 | 0.622 ± 0.086 | 1.04 ± 0.12 | 0.964 ± 0.15 | 0.926 ± 0.035 | 0.84 ± 0.071 | 1.06 ± 0.092 | 1.1 ± 0.088 | 0.915 ± 0.23 | 1.04 ± 0.022
